Reference: ChEMBL document CHEMBL1201862, “PubChem BioAssay data set” (2004)
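Growth conditions: 96-well plates. Treatment: test compound, 48 hours, 5 concentrations. Analysis: linear interpolation between bracketing concentrations; unreached endpoints set to highest concentration. The concentration for 50% growth inhibition is given as GI50.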 Active and inactive are the calls of the source. Cut-off read from the data, not from the text of the source: active = GI50 up to about 1.1 µM and inactive = higher.

Experiments:
Assay in all cases: NCI tumour cell line growth inhibition, 48 h
RXF 393 = system: RXF 393
SNB-19 = system: SNB-19
OVCAR-5 = system: OVCAR-5
UO-31 = system: UO-31
HT-29 = system: HT-29
MCF7 = system: MCF7
HCT-116 = system: HCT-116
HCC 2998 = system: HCC 2998
OVCAR-4 = system: OVCAR-4
MDA-MB-435 = system: MDA-MB-435
XF498 = system: XF498
NCI-H460 = system: NCI-H460
SR = system: SR
CAKI-1 = system: CAKI-1
HL-60 = system: HL-60
MDA-N = system: MDA-N
NCI-H522 = system: NCI-H522
TK-10 = system: TK-10
DMS-273 = system: DMS-273
T47D = system: T47D
SF-268 = system: SF-268
SN12C = system: SN12C
RPMI-8226 = system: RPMI-8226
BT-549 = system: BT-549
DMS-114 = system: DMS-114
DLD-1 = system: DLD-1
DU-145 = system: DU-145
SK-OV-3 = system: SK-OV-3
MDA-MB-231 = system: MDA-MB-231
Hs-578T = system: Hs-578T
EKVX = system: EKVX
M14 = system: M14
786-0 = system: 786-0
KM-20L2 = system: KM-20L2
A498 = system: A498
U-251 = system: U-251
NCI-H23 = system: NCI-H23
OVCAR-3 = system: OVCAR-3
KM12 = system: KM12
PC-3 = system: PC-3
K562 = system: K562
Malme-3M = system: Malme-3M
UACC-62 = system: UACC-62
A549 = system: A549
LXFL 529 = system: LXFL 529
HCT-15 = system: HCT-15
SK-MEL-28 = system: SK-MEL-28
UACC-257 = system: UACC-257
LOX IMVI = system: LOX IMVI
ACHN = system: ACHN
SNB-75 = system: SNB-75
HOP-62 = system: HOP-62
SK-MEL-5 = system: SK-MEL-5
CCRF-CEM = system: CCRF-CEM
HOP-18 = system: HOP-18
MOLT-4 = system: MOLT-4
HOP-92 = system: HOP-92
IGROV-1 = system: IGROV-1
M19-MEL = system: M19-MEL
SW-620 = system: SW-620
SF-539 = system: SF-539
SNB-78 = system: SNB-78
OVCAR-8 = system: OVCAR-8
NCI/ADR-RES = system: NCI/ADR-RES
COLO 205 = system: COLO 205
SK-MEL-2 = system: SK-MEL-2
SF-295 = system: SF-295
RXF 631 = system: RXF 631

O=C1C(O)=C(CC=C(Cl)Cl)C(=O)c2ccccc21
GI50 (RXF 393): 28.7 µM (inactive)
GI50 (SNB-19): 11 µM (inactive)
GI50 (OVCAR-5): 47.5 µM (inactive)
GI50 (UO-31): 20.7 µM (inactive)
GI50 (HT-29): 4.6 µM (inactive)
GI50 (MCF7): 8.87 µM (inactive)
GI50 (HCT-116): 1.36 µM (inactive)
GI50 (HCC 2998): 28 µM (inactive)
GI50 (OVCAR-4): 21.7 µM (inactive)
GI50 (MDA-MB-435): 11 µM (inactive)
GI50 (XF498): 32.3 µM (inactive)
GI50 (NCI-H460): 1.45 µM (inactive)
GI50 (SR): 1.08 µM (active)
GI50 (CAKI-1): 23.1 µM (inactive)
GI50 (HL-60): 2.07 µM (inactive)
GI50 (MDA-N): 16.4 µM (inactive)
GI50 (NCI-H522): 14 µM (inactive)
GI50 (TK-10): 38.9 µM (inactive)
GI50 (DMS-273): 2.04 µM (inactive)
GI50 (T47D): 38.5 µM (inactive)
GI50 (SF-268): 11.7 µM (inactive)
GI50 (SN12C): 12.9 µM (inactive)
GI50 (RPMI-8226): 2.28 µM (inactive)
GI50 (BT-549): 18.3 µM (inactive)
GI50 (DMS-114): 18 µM (inactive)
GI50 (DLD-1): 1.65 µM (inactive)
GI50 (DU-145): 23.8 µM (inactive)
GI50 (SK-OV-3): 41.6 µM (inactive)
GI50 (MDA-MB-231): 15.1 µM (inactive)
GI50 (Hs-578T): 42.4 µM (inactive)
GI50 (EKVX): 42.3 µM (inactive)
GI50 (M14): 12.6 µM (inactive)
GI50 (786-0): 6.17 µM (inactive)
GI50 (KM-20L2): 9.42 µM (inactive)
GI50 (A498): 30 µM (inactive)
GI50 (U-251): 2.62 µM (inactive)
GI50 (NCI-H23): 27.9 µM (inactive)
GI50 (OVCAR-3): 13.5 µM (inactive)
GI50 (KM12): 6.46 µM (inactive)
GI50 (PC-3): 10.9 µM (inactive)
GI50 (K562): 1.82 µM (inactive)
GI50 (Malme-3M): 10.8 µM (inactive)
GI50 (UACC-62): 4.91 µM (inactive)
GI50 (A549): 4.44 µM (inactive)
GI50 (LXFL 529): 2.38 µM (inactive)
GI50 (HCT-15): 0.757 µM
GI50 (SK-MEL-28): 23.4 µM (inactive)
GI50 (UACC-257): 15.1 µM (inactive)
GI50 (LOX IMVI): 2.23 µM (inactive)
GI50 (ACHN): 12.3 µM (inactive)
GI50 (SNB-75): 50.6 µM (inactive)
GI50 (HOP-62): 12.4 µM (inactive)
GI50 (SK-MEL-5): 8 µM (inactive)
GI50 (CCRF-CEM): 2.82 µM (inactive)
GI50 (HOP-18): 25.4 µM (inactive)
GI50 (MOLT-4): 1.46 µM (inactive)
GI50 (HOP-92): 43 µM (inactive)
GI50 (IGROV-1): 6.5 µM (inactive)
GI50 (M19-MEL): 7.64 µM (inactive)
GI50 (SW-620): 8.93 µM (inactive)
GI50 (SF-539): 10 µM (inactive)
GI50 (SNB-78): 21.9 µM (inactive)
GI50 (OVCAR-8): 5.48 µM (inactive)
GI50 (NCI/ADR-RES): 19.1 µM (inactive)
GI50 (COLO 205): 19.5 µM (inactive)
GI50 (SK-MEL-2): 17.7 µM (inactive)

c1ccc(-c2nc3sccn3n2)cc1
GI50 (RXF 393): > 100 µM (inactive)
GI50 (SNB-19): > 100 µM (inactive)
GI50 (OVCAR-5): > 100 µM (inactive)
GI50 (UO-31): > 100 µM (inactive)
GI50 (HT-29): > 100 µM (inactive)
GI50 (HCT-116): > 100 µM (inactive)
GI50 (NCI-H460): > 100 µM (inactive)
GI50 (SR): > 100 µM (inactive)
GI50 (HL-60): > 100 µM (inactive)
GI50 (NCI-H522): > 100 µM (inactive)
GI50 (TK-10): > 100 µM (inactive)
GI50 (DMS-273): > 100 µM (inactive)
GI50 (SF-268): > 100 µM (inactive)
GI50 (DMS-114): > 100 µM (inactive)
GI50 (SK-OV-3): > 100 µM (inactive)
GI50 (EKVX): > 100 µM (inactive)
GI50 (M14): > 100 µM (inactive)
GI50 (A498): > 100 µM (inactive)
GI50 (U-251): > 100 µM (inactive)
GI50 (NCI-H23): > 100 µM (inactive)
GI50 (KM12): > 100 µM (inactive)
GI50 (K562): > 100 µM (inactive)
GI50 (UACC-62): > 100 µM (inactive)
GI50 (A549): > 100 µM (inactive)
GI50 (SK-MEL-28): > 100 µM (inactive)
GI50 (UACC-257): > 100 µM (inactive)
GI50 (ACHN): > 100 µM (inactive)
GI50 (HOP-62): > 100 µM (inactive)
GI50 (CCRF-CEM): > 100 µM (inactive)
GI50 (MOLT-4): > 100 µM (inactive)
GI50 (HOP-92): 74.3 µM (inactive)
GI50 (IGROV-1): > 100 µM (inactive)
GI50 (M19-MEL): > 100 µM (inactive)
GI50 (SF-295): > 100 µM (inactive)
GI50 (OVCAR-8): > 100 µM (inactive)
GI50 (RXF 631): > 100 µM (inactive)
